Series [1] has as its system S. typhimurium TA100. Conditions: for reversion of mutations in TA100: 40 μg/mL, presence and absence of the microsomal fraction; for Mutagenic index TA100: reference mutagen. On the procedure: (§1) Potential mutagenicity or pro-mutagenicity of non-heated and heated ST, ST-LA, and ST-OA was determined using the bacterial reverse mutation assay (Ames test) with Salmonella enterica subsp. enterica ser. typhimurium tester strains TA98, TA100, and TA102, which were obtained from the Polish Collection of Microorganisms of the Institute of Immunology and Experimental Therapy of the Polish Academy of Sciences in Wroclaw.
(§2) Mutagenicity experiments were performed in the liquid pre-incubation assay, without and with metabolic activation by supplying Aroclor 1254-induced rat liver microsomal fraction (S9, Sigma-Aldrich) with NADP and cofactors for NADPH-supported oxidation, according to the procedure described by Mortelmans and Zeiger[39]. Briefly, reaction mixtures, consisting of 12-h bacterial culture, non-heated and heated compound (ST, ST-LA, ST-OA) at a concentration of 40 μg, 0.2 M phosphate buffer (pH 7.4), and alternatively S9 activating mixture, were pre-incubated at 37 °C for 20 min. […] The mutagen, 2-aminoanthracene (5 μg) (Sigma-Aldrich), was a positive control in pro-mutagenicity experiments. After pre-incubation, the reaction mixtures were added to the top agar supplemented with traces of histidine and biotin and poured onto the plates covered with minimum glucose agar. The cultures were incubated for 48 h at 37 °C, and the number of revertants (His+) colonies was counted manually.
(§3) Compounds with MI ≥ 2 can be recognized as potentially mutagenic.

The test system of series [2] is CCD 841 CoN cells. The experiment in a line: DNA synthesis, BrdU incorporation (Cell Proliferation ELISA). The class given is cell-based, human. Conditions: 10-40 μg/mL, 48 h. On the procedure:
CCD 841 CoN cells were grown in black 96-well plates at an initial cell density of 2 × 10^4 cells/cm^2 for 24 h under standard culture conditions. The cells were treated with ST (2.5, 5, 10, 20, and 40 μg/mL) and its esters ST-OA and ST-LA (10, 20, and 40 μg/mL) for 48 h. DNA synthesis was measured by incorporating thymidine analog 5-bromo-2′-deoxyuridine (BrdU) into newly synthesized DNA using the Cell Proliferation ELISA kit according to the protocol recommended by the manufacturer (Roche Diagnostics GmbH, Mannheim, Germany). Briefly, BrdU was added to the treated cells 24 h before the end of the exposure to the ST, ST-OA, and ST-LA (final BrdU concentration of 10 μM). After treatment, BrdU-labeled DNA was denatured (30 min, 20 °C). Then, BrdU was bonded with a peroxidase-conjugated anti-BrdU antibody (90 min, 20 °C) and reacted with the peroxidase substrate. The absorbance measurement was done with a stop solution (1 M H2SO4) at 450 nm with reference wavelength 690 nm using a Tecan M200 Infinite microplate reader.

The nature of series [3]: Thermo-oxidative treatment at 180 °C for 8 h, degradation of the compound. The class given is physicochemical. As to conditions: heated at 180 °C for 8 h under oxygen atmosphere. On the procedure:
ST, ST-OA, and ST-LA (50 mg each) were placed separately in glass vials and heated at 180 °C for 8 h under an oxygen atmosphere. After thermo-oxidative treatment, the tested compounds were stored at − 20 °C until chemical and biological analyses. The non-heated and heated ST and its esters were analyzed to detect degradation products and oxyderivatives. Analytical methods were described in the article published previously.

Series [4] has as its system CCD 841 CoN cells. The series can be described thus: Cell cycle analysis by flow cytometry (propidium iodide). Type of series: cell-based, human. Conditions: 40 μg/mL, 24 h. On the procedure:
CCD 841 CoN cells were grown in 6-well plates at an initial cell density of 2 × 10^4 cells/cm^2 for 24 h under standard culture conditions. The cells were treated for 24 h with the analyzed compounds at a concentration of 40 μg/mL; the high dose was applied because of the relatively low cytotoxic potential of ST-OA and ST-LA as determined in cytotoxicity studies. In addition, the cells were exposed to 0.05 μM camptothecin (Sigma-Aldrich) as a positive reference compound known to modulate cell cycle progression.
After treatment, the cells were harvested by trypsinization, washed in PBS, and fixed in 70% ethanol. Then, the cells were stained with 50 μg/mL propidium iodide in the presence of 100 μg/mL RNase (Sigma-Aldrich). The sample preparation method and staining protocol were described previously. The cycle phase distribution was analyzed with an Amnis™ FlowSight™ flow cytometer (Luminex Corporation, TX, USA).
On the technique in general: Flow cytometry measures light scatter and fluorescence of single cells or particles in a stream.

Series [5] deals with S. typhimurium TA102. The series can be described thus: Bacterial reverse mutation assay (Ames test), strain TA102. Conditions: for effect on TA102 revertants: 40 μg/mL, regardless of metabolic activation (+/− S9). On the procedure: as §1, §2, §3
For orientation: The Ames test detects mutagens through reverse mutation in bacteria.

The test system of series [6] is FHs 74 Int cells. Also noted: method as in PMID 31883991. Conditions: normal human small intestine cells; cited from earlier work.
The subject of series [7] is CCD 841 CoN cells. The experiment in a line: MultiTox-Fluor Multiplex Cytotoxicity Assay (live and dead cell fluorescence). Type of series: cell-based. Conditions: doses up to 40 μg/mL, 48 h. On the procedure:
The normal human diploid CCD 841 CoN cell line (ATCC® CRL-1790™) isolated from colon mucosa was obtained from American Type Culture Collection (ATCC, Manassas, VA, USA). Cells were cultured in Dulbecco’s Modified Eagle’s Medium (DMEM, Sigma-Aldrich) supplemented with fetal bovine serum (FBS; Gibco BRL, Grand Island, NY, USA) to a final concentration of 10% and maintained at 37 °C in a humidified atmosphere with 5% CO2.
In the cytotoxicity experiments, CCD 841 CoN cells were seeded in 96-well plates at an initial density of 2.0 × 10^4 cells/cm^2 and incubated for 24 h. […] Control culture contained the vehicle at the amount corresponding to the sample analyzed.
The Multitox-Fluor Multiplex Cytotoxicity Assay (Promega GmbH, Mannheim, Germany) was applied to determine the relative number of live and dead cells in the CCD 841 CoN cell cultures treated with the analyzed compounds. The assay determined live- and dead-cell protease activities using two fluorogenic peptide substrates, cell-permeant (glycyl-phenylalanyl-amino fluorocoumarin; GF-AFC) and cell-impermeant (bis-alanyl-alanyl-phenylalanyl-rhodamine 110; bis-AAF-R110). After treatment, the cells were incubated with GF-AFC and bis-AAF-R110 substrates for 60 min at 37 °C. The live- and dead-cell proteases produced AFC and R110 products, measured using a Tecan M200 Infinite microplate reader (Tecan Group Ltd., Männedorf, Switzerland) at different excitation (400 nm and 485 nm) and emission (505 nm and 520 nm) spectra. The assay was conducted according to the manufacturer’s instructions.

Series [8] deals with S. typhimurium TA98. The series can be described thus: Bacterial reverse mutation assay (Ames test), strain TA98. As to conditions: for reversion of mutations in TA98: 40 μg/mL, presence and absence of the microsomal fraction. On the procedure: as §1, §2, §3
The subject of series [9] is caspase 3/7 activity in CCD 841 CoN cells. The experiment in a line: Caspase 3/7 activity assay (APO-One Homogeneous). Conditions: 40 μg/mL, 24 h. The class given is cell-based, human. On the procedure:
CCD 841 CoN cells were grown in black 96-well plates at an initial cell density of 2 × 10^4 cells/cm^2 for 24 h under standard culture conditions. The cell cultures were treated for 24 h with ST, ST-OA, and ST-LA at a 40 μg/mL dose. After treatment, caspase-3/7 activity was determined using the APO-One Homogeneous Caspase-3/7 Assay (Promega Corporation, Wisconsin, USA), which is based on the proteolytic cleavage of C-terminal side of aspartate residue in the DEVD peptide substrate by caspase 3/7 into fluorescent rhodamine 110 (R110). Analysis of caspase 3/7 activity was carried out following the manufacturer's instructions. Briefly, the cells after the treatment were incubated at room temperature with Apo-ONE® Caspase-3/7 Reagent—bifunctional cell lysis/caspase activity buffer combined with the pro-fluorescent caspase-3/7 substrate Z-DEVD-R110. After 4-h incubation, fluorescence was measured at an excitation wavelength of 485 nm and an emission wavelength of 530 nm using a Tecan M200 Infinite microplate reader. Data obtained were normalized to cellular protein content, quantified by BCA assay (Pierce® BCA Protein Assay Kit, Thermo Scientific Inc., USA) according to the manufacturer's protocol.

Series [10] relates to THLE-2 cells. On the set-up: method as in PMID 31883991. As to conditions: normal human liver cells; cited from earlier work.
For series [11], the system named is CCD 841 CoN cells. The series can be described thus: DNA damage detection, comet assay (SCGE). The class given is cell-based, human. As to conditions: reference oxidant, 100 μM, 30 min. On the procedure: The cells were grown at 6-well plates at the established density and standard culture conditions and exposed to the non-heated and heated ST, ST-OA, and ST-LA for 48 h. The non-treated cells and cells treated with H2O2 (100 μM, 30 min) to induce oxidative DNA damage constituted the negative and positive controls, respectively. After treatment, cells were analyzed for DNA damage using a single cell gel electrophoresis (SCGE) called comet assay, described in detail previously. Briefly, harvested cells suspended in low melting point agarose were put onto microscope slides pre-coated with normal melting point agarose and subjected sequentially to lysis, alkaline electrophoresis (pH > 13), and neutralization ([…]). The cells were stained with SYBRGold (Molecular Probes), viewed under a fluorescence microscope (Axiovert 200, Zeiss, Carl Zeiss, Gottingen, Germany), and analyzed using CometScore™ software (TriTek Corp., Sumerduck, VA, USA). At least 100 cells were analyzed on a microscope slide; 300 cells were considered for DNA damage detection in one sample. Data were expressed as the mean percentage of DNA content in the comet tail. […] Based on the comets' categorization, the total comet score (TCS) was calculated according to the formula: TCS = 0(n) + 1(n) + 2(n) + 3(n) + 4(n), where “n” is the number of cells in each comet class (0–4)[45].

Setting [12] is: with metabolic activation (+ S9), reference mutagen.

Where two headings read alike, the source gives them in different places.

As for `CCCCCCCC/C=C\CCCCCCCC(=O)OC1CCC2(C)C(=CCC3C2CCC2(C)C(C(C)/C=C/C(CC)C(C)C)CCC32)C1` (stereo not shown) [ST-OA, stigmasteryl oleate], the “reversion of mutations in TA100” value in series [1] is recorded as “did not induce the reversion of mutations”. Besides, the “DNA synthesis inhibition” value in series [2] is “not observed”. Moreover, in series [3], the “Fatty acid residue depletion (%)” value was 77.14 ± 5.3% and the “Sterol moiety depletion (%)” value came to 88.8 ± 3.5%. Further, the “subpopulation of dead cells with lower/reduced DNA content” value in series [4] is “Slight expanding the cell subpopulation with reduced DNA content”. For the same molecule, the “effect on TA102 revertants” value in series [5] is recorded as “did not affect the number of TA102 revertants”. In addition, the “cytotoxic effects” value in series [6] is on record as “no cytotoxic effects”. In addition, the “effect on colon cell viability / cytotoxicity” value in series [7] is reported as “did not affect colon cell viability”. Besides, the “reversion of mutations in TA98” value in series [8] was “did not induce the reversion of mutations”. Further, the “caspase 3/7 activity” value in series [9] is reported as “slightly increased caspase-3/7 activities”. For the same molecule, the “cytotoxic effects” value in series [10] is reported as “no cytotoxic effects”.
`Nc1ccc2cc3ccccc3cc2c1` [2-Aminoanthracene, 2-aminoanthracene, reference compound]: in series [1] (with metabolic activation (+ S9)), the “Mutagenic index TA100” value was 2.03. Besides, the “Mutagenic index TA102” value in series [5] (setting [12]) is reported as 2.95. Further, in series [8] (setting [12]), the “Mutagenic index TA98” value worked out at 6.00.
`CCCCC/C=C\C/C=C\CCCCCCCC(=O)OC1CCC2(C)C(=CCC3C2CCC2(C)C(C(C)/C=C/C(CC)C(C)C)CCC32)C1` (stereo not shown) [ST-LA, stigmasteryl linoleate]: in series [1], the “reversion of mutations in TA100” value is “did not induce the reversion of mutations”. In series [2], the “DNA synthesis inhibition” value is recorded as “not observed”. Further, in series [3], the “Fatty acid residue depletion (%)” value is on record as 31.11 ± 3.2% and the “Sterol moiety depletion (%)” value was found to be 71.6 ± 6.6%. Moreover, the “subpopulation of dead cells with lower/reduced DNA content” value in series [4] was “Slight expanding the cell subpopulation with reduced DNA content”. Further, the “effect on TA102 revertants” value in series [5] is listed as “did not affect the number of TA102 revertants”. Moreover, the “cytotoxic effects” value in series [6] is recorded as “no cytotoxic effects”. Besides, in [7], the “effect on colon cell viability / cytotoxicity” value was “did not affect colon cell viability”. For the same molecule, the “reversion of mutations in TA98” value in [8] is recorded as “did not induce the reversion of mutations”. In addition, the “caspase 3/7 activity” value in series [9] was “slightly increased caspase-3/7 activities”. Also, in series [10], the “cytotoxic effects” value is recorded as “no cytotoxic effects”.
With `[N-]=[N+]=[N-].[Na+]` [Sodium azide, sodium azide, reference compound], the “Mutagenic index TA100” value in series [1] (without metabolic activation (− S9), dose printed with the label) was found to be 13.55; in series [1] (without metabolic activation (− S9), dose printed with the label, listed as sodium azide) it was 13.6.
Turning to `OO` [H2O2, reference compound], the “total comet score (TCS)” value in [11] is given as 263.1 ± 29.4.

Source of the values: PMC10151334, “Anti-proliferative potential and oxidative reactivity of thermo-oxidative degradation products of stigmasterol and stigmasteryl esters for human intestinal cells” (Scientific Reports, 2023).
